Assay results reported in patent publication US8247603B2, “Deuterated catecholamine derivatives and medicaments comprising said compounds” (Birds Pharma GmbH Berolina Innovative, priority 2006, dated 2012).

Columns and labels:
[1] = system: dopamine output in the striatum; test: Striatal dopamine output measured by microdialysis; assay type: in vivo, Male Wistar rats; conditions: for Increase of dopamine in the striatum compared to L-DOPA (comparison of AUC0-t): 50 mg/kg i.p., relative to L-DOPA; for Increase of dopamine in the striatum compared to L-DOPA (comparison of AUC0-t) / Baseline corrected dopamine output in the striatum, AUC0-t: Male Wistar rats; for Baseline corrected dopamine output in the striatum, AUC0-t: 50 mg/kg intraperitoneal, 10 mg/kg Carbidopa i.p. 30 min before, microdialysis in dorsolateral striatum
Method: The striatal output of dopamine was measured in Male Wistar rats following intraperitoneal administration of 50 mg/kg L-2-Amino-3-(3,4-dihydroxyphenyl) propionic acid (L-DOPA), L-2-Amino-2,3,3-trideutero-3-(3,4-dihydroxyphenyl) propionic acid (WO-A 2004/056724, Example 6) and L-2-Amino-2,3-dideutero-3-(3,4-dihydroxyphenyl) propionic acid (Example 6), respectively. Male wistar rats (BK Universal, Sollentuna, Sweden) weighing about 300 g at the time of experiment were anaesthetized with a cocktail containing fentanyl citrate (0.39 mg/kg) and fluanisone (12.5 mg/kg, Hypnorm®, Janssen-Cilag) and midazolam (6.25 mg/kg, Dormicum®, Roche) diluted in distilled water (1:1:2; 5 ml/kg i.p.) and mounted in a stereotaxic frame. Dialysis probes were implanted in the dorsolateral striatum (AP: +0.6: ML+3.0: DV −6.2 relative to bregma and the dural surface according to the atlas of Paxinos and Watson (1998)). Dialysis occurs through a semipermeable membrane (Filtral AN69, Hospal Industrie, France) with an active surface length of 3.5 mm. Dialysis experiments were conducted approximately 48 h after surgery in freely moving rats. The rats received 30 min before administration of test items 10 mg/kg Carbidopa, (i.p.). The dialysis probe was perfused with a physiological perfusion solution (Apoteksbolaget, Sweden) at a rate of […] set by a microinfusion pump (Harvard Apparatus, Holliston, Mass.). Dialysate was collected over 15 min intervals and automatically injected into a high performance liquid chromatography (HPLC) system. On-line quantification of dopamine in the dialysate was accomplished by electro-chemical detection (ESA, Chelmsford, Mass.). The location of microdialysis probes was verified in slices of formalin-fixed tissue stained with neutral red. The baseline corrected concentrations (fmol/min) were plotted over the time.

[2] = system: striatal output of norepinephrine; test: Striatal output of norepinephrine; assay type: in vivo; conditions: compared to L-DOPA
[3] = Therapeutic equivalence during continuous intravenous infusion; assay type: in vivo
Description: The optimal infusion rate for L-DOPA methyl ester was 2.7 times that required for L-DOPA (Stocchi et al. 1992, Movement Disorders, 7: 249-256).

[4] = system: dopamine in the striatum; conditions: male Wistar rats; known from WO-A 2004/056724; cited from earlier work
[5] = system: Parkinson's disease exhibiting severe on-off phenomena; conditions: continuous intravenous infusion, patients with Parkinson's disease with severe on-off phenomena; cited from earlier work
[6] = given orally or intraperitoneally, on a molar basis; cited from earlier work
[7] = cited from earlier work

| Compound | Increase of dopamine in the striatum compared to L-DOPA (comparison of AUC0-t) [1] | Baseline corrected dopamine output in the striatum, AUC0-t [1] [fmol/min*min] | Striatal output / formation of norepinephrine [2] | further results |
| --- | --- | --- | --- | --- |
| [2H][C@@H](c1ccc(O)c(O)c1)[C@]([2H])(N)C(=O)O [Example 6, L-2-Amino-2,3(S)-dideutero-3-(3,4-dihydroxyphenyl) propionic acid] | threefold higher | 685 | does not block the formation of norepinephrine | Increase of dopamine in the striatum compared to L-2-Amino-2,3,3-trideutero-3-(3,4-dihydroxyphenyl) propionic acid ([1]; Example 15 and Table 1): significantly more |
| [2H][C@@H](c1ccc(O)c(O)c1)[C@]([2H])(N)C(=O)OC [Example 7, L-2-Amino-2,3(S)-dideutero-3-(3,4-dihydroxyphenyl)methyl propionate] | – | – | – | Therapeutic equivalence to L-2-Amino-2,3-dideutero-3-(3,4-dihydroxyphenyl) propionic acid [3]: therapeutically equivalent |
| [2H]C([2H])(c1ccc(O)c(O)c1)[C@]([2H])(N)C(=O)O [L-2-Amino-2,3,3-trideutero-3-(3,4-dihydroxyphenyl) propionic acid] | about twice as high | 533 | reduces the striatal output of norepinephrine | Increase of dopamine in the striatum compared to non-deuterated L-DOPA [4]: significantly more |
| N[C@@H](Cc1ccc(O)c(O)c1)C(=O)O [L-2-Amino-3-(3,4-dihydroxyphenyl) propionic acid] | – | 228 | – | – |
| COC(=O)[C@@H](N)Cc1ccc(O)c(O)c1 [L-DOPA methyl ester] | – | – | – | Optimal infusion rate relative to that required for L-DOPA [5]: 2.7 times; Equivalence to L-DOPA in animal experiments [6]: equivalent on a molar basis to L-DOPA; Solubility [7]: highly soluble |
